Test results from US8337941B2, “Fluorescent substrates for monoamine transporters as optical false neurotransmitters” (The Trustees of Columbia University in the City of New York, priority 2006, dated 2012).
“Also recorded” adds a separate entry of the source. Where two headings read alike, the source gives them in different places.

Key:
[1] = photophysical characterization (fluorescence spectra); assay type: physicochemical; conditions: for λem / λex: 100 mM sodium phosphate pH 7.4, 10 uM probe; for pH dependency of fluorescence: spectra at pH 2, 5, 7.4, 9 and 12
Experimental: All spectra were recorded in 100 mM sodium phosphate (pH 7.4) unless otherwise indicated. Recorded λmax is that of the longest wavelength transition. Extinction coefficients were reported as the average of at least three independent preparations of the probes. Fluorescence measurements were taken on a Jobin Yvon Fluorolog fluorescence spectrofluorometer in 100 mM sodium phosphate pH 7.4 at a concentration of 10 uM in probe, excited at their respective λmax.

VMAT2 = target: T1, VMAT2 (Homo sapiens, UniProt Q05940); test: in vitro competitive binding assay, membranes from HEK cells stably transfected with VMAT2; conditions: inhibition of binding to membranes from HEK cells stably transfected with VMAT2; read-out: apparent IC50
T1 construct: expressed in transfected cells; host or cells: HEK cells, stably transfected; membranes
Excerpt: On the basis of initial encouraging results, compound FFN 511 was submitted to rigorous investigation, from which it emerged as a promising imaging probe. Catecholamines are stored in chromaffin large dense core vesicles (LDCVs), which contain vesicular monoamine transporter 1 (VMAT1). Although VMAT 1 and 2 are distinct proteins, they share many functional characteristics.

evoked DA release = evoked DA release in slice measured by cyclic voltammetry; assay type: cell-based, mouse
Excerpt: FFN 511 was destained by neuronal stimulation in a calcium-dependent manner under conditions identical to those that release DA as measured by simultaneous cyclic voltammetry. (FFN 511 is not oxidized and not measured by cyclic voltammetry).

DA terminals = test: labeling and destaining of DA terminals in live striatal acute slice; assay type: cell-based, mouse
Excerpt: Distribution of FFN 511 was compared to DA neurons using striatal slices prepared from a transgenic mouse expressing GFP under the control of tyrosine hydroxylase (TH) promoter (36).
As FFN 511 was applied in a “pulse-chase” pattern, with the extracellular probe washed out following accumulation in the terminals, these experiments essentially measure the amount of DA remaining in the terminal and the released transmitter. The probability of release from a given terminal under a particular stimulus condition is simply the fractional destaining, i.e., Pterminal=Ft/(Ft0−Fbkgnd) Pterminal=1−(Ft−Fbkg)/(Ft0−Fbkg),
where Ft0 is the initial fluorescent intensity and Fbkgnd is the label remaining after maximal stimulus is applied.

chromaffin cells [2] = test: TIRF assay of stimulation-dependent exocytosis from FFN 511-loaded chromaffin granules; assay type: cell-based, mouse; conditions: single LDCV
Excerpt: Total internal reflectance fluorescence microscopy (TIRF) was used as a functional assay for the ability of FFN 511-loaded chromaffin granules to undergo stimulation-dependent exocytosis. TIRF allows for fluorescence excitation in a narrow −100 nm thick layer of the cell immediately adjacent to the surface.

chromaffin cells [3] = test: probe uptake and labeling in chromaffin cells by fluorescence microscopy; assay type: cell-based, mouse
Excerpt: Chromaffin cells are an excellent model system as the cytoplasm of these cells in culture is almost completely filled with large dense core vesicles that accumulate catecholamines by VMAT.
If necessary, metabolism of the probes by MAO (present in mitochondria) may be reduced by the addition of a suitable inhibitor (deprenyl for MAO B, clorgyline for MAO A) or by simply methylating the α-position of the amine (10, 14).
Catecholamines are stored in chromaffin large dense core vesicles (LDCVs), which contain vesicular monoamine transporter 1 (VMAT1). Although VMAT 1 and 2 are distinct proteins, they share many functional characteristics.

[4] = 4 Hz stimulation, in the presence of calcium

T1 sequence (Q05940 whole entry, species assumed): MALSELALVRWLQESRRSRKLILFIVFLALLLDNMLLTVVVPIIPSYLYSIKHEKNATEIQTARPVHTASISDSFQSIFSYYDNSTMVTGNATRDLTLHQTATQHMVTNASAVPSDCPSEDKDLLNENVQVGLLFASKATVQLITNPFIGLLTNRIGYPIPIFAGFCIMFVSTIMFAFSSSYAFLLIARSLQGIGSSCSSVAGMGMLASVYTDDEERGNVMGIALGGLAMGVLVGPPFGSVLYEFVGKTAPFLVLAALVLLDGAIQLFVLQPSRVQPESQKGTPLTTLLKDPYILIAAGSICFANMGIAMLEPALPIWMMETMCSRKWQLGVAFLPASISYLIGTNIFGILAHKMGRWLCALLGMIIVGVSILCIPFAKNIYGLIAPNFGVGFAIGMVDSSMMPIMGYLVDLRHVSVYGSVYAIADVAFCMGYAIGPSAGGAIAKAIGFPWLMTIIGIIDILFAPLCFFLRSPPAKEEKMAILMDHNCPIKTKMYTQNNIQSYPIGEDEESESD

For `CCN(CC)c1ccc2c(C)cc(=O)oc2c1` [Coumarin 1, reference compound], the “behaviour of fluorescence in water / aqueous buffer solution” value [1] was “drops in water”, the λem [1] was 470 nm and the λex [1] was 384 nm.

`NCCc1ccc(O)c(O)c1` [DA, dopamine, reference compound] gave an IC50 (VMAT2) of ~1 µM.

For `O=C(O)C(F)(F)F.O=c1cc(O)c2ccc(N3CCNCC3)cc2o1` [Probe 484, 4-(4—Hydroxy-coumarin-7-yl)-piperazin-1-ium trifluoroacetate], the λem [1] was 385 nm, the λex [1] was 319 nm and the “pH dependency of fluorescence” value ([1]; trifluoroacetate) was “possess pH-dependency; also recorded: shift in fluorescence emission maxima seen with changing pH”.

Molecule `NCCNc1ccc2ccc(=O)oc2c1` [Probe 505, 7-(2-Amino-ethylamino)-coumarin] has a λem [1] of 455 nm and a λex [1] of 361 nm.

For `NCCc1cc(=O)oc2c3c4c(cc12)CCCN4CCC3` [Probe 511, 8-(2-Amino-ethyl)-2,3,5,6-tetrahydro-1H,4H-11-oxa-3a-aza-benzo[de]anthracen-10-one], the IC50 (VMAT2) was 2.5 µM, the “effect on evoked DA release at higher concentrations” value (evoked DA release) was “reduced evoked DA release” and the “effect on evoked DA release at levels sufficient to label the terminals” value (evoked DA release) was “did not alter evoked DA release”. The “number of action potentials to release about 50% of the terminal content” value (DA terminals; [4]) was 640 action potentials, the “time to release about 50% of the terminal content” value (DA terminals; [4]) was ~160 s and the “fluorescent labeling in corpus callosum” value (DA terminals; acute slices, mouse CNS) was “no labeling”. The “fluorescent labeling in cortex” value (DA terminals; acute slices, mouse CNS) was “fainter fluorescence with patchy distribution”, the “fluorescent labeling in striatum” value (DA terminals; acute slices, mouse CNS) was “clearly observed in presynaptic terminals” and the “FFN 511 labeling after unilateral 6-OHDA lesion of DA neurons” value (DA terminals; injected hemisphere, slices 21 days post-lesion) was “nearly completely abolished”. The “calcium dependence of stimulated destaining” value (DA terminals; neuronal stimulation) was “completely dependent on the presence of calcium”, the “release from LDCVs on high potassium stimulation” value (chromaffin cells [2]) was “released by exocytosis” and the emission maximum ([1]; compared with GFP) was ~500 nm. For the same molecule, the “pH dependency of fluorescence” value [1] was “increased fluorescence seen at alkaline pH values”, the “labeling of chromaffin cells” value (chromaffin cells [3]) was “selectively label healthy chromaffin cells” and the “duration of linear increase of intracellular probe concentration (fluorescence)” value (chromaffin cells [3]; 500 nM in physiological saline solution) was “at least 60 minutes”. The “uptake into chromaffin vesicles” value (chromaffin cells [3]; At 50 nM) was “actively taken up into chromaffin vesicles”, the “time window in which uptake is linear” value (chromaffin cells [3]; FFN 511 500 nM, single chromaffin cells) was 10 to 60 min and the “accumulation in acidic compartments of the cells” value (chromaffin cells [3]; abolished by chloroquine exposure) was “accumulates in acidic compartments”. For the same molecule, the “fluorescence after addition of lipophilic weak base chloroquine” value (chromaffin cells [3]; chloroquine 100 μM) was “completely abolished”, the “staining of cell nuclei” value (chromaffin cells [3]; chromaffin cells) was “nuclear exclusion” and the “effect of VMAT inhibitor tetrabenazine on probe uptake” value (chromaffin cells [3]; chromaffin cells, TBZ 10 uM (FIG. 20), p=0.001 vs control) was “abolished by Tetrabenazine; also recorded: inhibited by tetrabenazene”.

For `CN(C)c1ccc2cc3ccc(N(C)C)cc3nc2c1` [acridine orange, reference compound], the “behaviour of fluorescence in water / aqueous buffer solution” value [1] was “drops in water”.

In the case of `CC(N)Cc1ccccc1` (stereo not shown) [amphetamine, reference compound], the “loss of 511 fluorescence” value (DA terminals; 10 μM, 10 min, striatal slice) is reported as ~50%.

For `COC(=O)[C@H]1[C@H]2C[C@@H]3c4[nH]c5cc(OC)ccc5c4CCN3C[C@H]2C[C@@H](OC(=O)c2cc(OC)c(OC)c(OC)c2)[C@@H]1OC` [reserpine, reference compound], the “inhibition of 511 labeling by VMAT2 inhibitors” value (DA terminals) was “strongly inhibited”.

For `COc1cc2c(cc1OC)C1CC(=O)C(CC(C)C)CN1CC2` (stereo not shown) [tetrabenazine, reference compound], the “inhibition of 511 labeling by VMAT2 inhibitors” value (DA terminals; striatal slice, reserpine 10 μM, 2 hours (FIG. 36B)) was “strongly inhibited”.
